Article PMC9852552, “Emission of floral volatiles is facilitated by cell-wall non-specific lipid transfer proteins” (Nature Communications, 2023)
Several values for one entry are separate records, joined by “and”; a condition that tells them apart may be missing. Equal values may be shown once.

Legend:
[1] = target: recombinant PhnsLTP3; test: TNS displacement assay with recombinant PhnsLTP3; assay type: binding, Petunia hybrida; details: PhnsLTP3 1 µM, TNS 3 µM; for Kd: non-linear fitting to Michaelis-Menten equation (one binding site), means ± S.E., n = 3, read-out: dissociation constant Kd (PhnsLTP3); for Percentage fluorescence quenched: three biological replicates (c2-c4)
Protocol: (§1) To directly test whether PhnsLTP3 can bind petunia VOCs, in vitro displacement assays were performed using the recombinant PhnsLTP3 protein and fluorescent 6-(p-toluidino)−2-naphthalenesulfonate (TNS) in the presence of petunia volatiles. […] TNS fluoresces strongly when bound to the hydrophobic regions of the protein, while it has weak fluorescence in an aqueous solution. […] Potential ligands of the protein will displace the bound TNS from the hydrophobic protein pocket into the aqueous environment leading to a decrease in the fluorescent signal, which was used to calculate the dissociation constant of the protein with ligand. […] To test whether PhnsLTP2 and PhnsLTP3 can bind other VOCs, we assayed the terpenoids: limonene, linalool, and nerolidol, as well as methyl jasmonate in TNS displacement assays. Both PhnsLTP2 and PhnsLTP3 were able to bind tested volatile compounds with Kds in the micromolar range (Supplementary Figs. 16 and 17).
Fig. 5 Binding kinetics of recombinant PhnsLTP3 with VOCs emitted by petunia flowers. TNS displacement assays were performed at fixed concentrations of PhnsLTP3 (1 µM) and TNS (3 µM) and the fluorescence was measured before and after the tested compounds were added at various concentrations. The results are expressed as percentage of fluorescence quenched with respect to the concentration of added compound. The binding curves were obtained by non-linear fitting to the Michaelis-Menten equation (solid line in the graph) and the dissociation constants Kd [µM] were obtained. […] All data are means ± S.E. (n = 3 biological replicates).
(§2) The fluorescence-based-binding assays were performed largely according to previous publications[12],[52] with slight modifications. […] All mixtures were excited at 320 nm, and the fluorescence emission at 437 nm was recorded using a plate reader (SpectraMax iD3, Molecular Devices) at equilibrium after 5 min of incubation at 25 °C giving the background fluorescence Fmix0 and FTNS0 . The tested ligands dissolved in 2 µL DMSO were then added to the mixtures and TNS only to different final concentrations, and the fluorescence emissions were recorded at equilibrium after 5 min of incubation ( Fmixligand and FTNSligand ). To account for the change in the TNS fluorescence intensity upon adding the solvent DMSO, the background fluorescence of TNS ( FTNSsol ) as well as each PhnsLTP with TNS ( Fmixsol ) were measured. The ratios RTNS=FTNSsol/FTNS0 and Rmix=Fmixsol/Fmix0 were calculated to calibrate the fluorescence. Three measurements were taken for each concentration. The results were expressed as a percentage of fluorescence quenched Fmixligand/Rmix−FTNSligand/RTNS/Fmix0−FTNS0×100% . The corresponding dissociation constants kd were obtained by non-linear regression fitting of the binding kinetics to the Michaelis-Menten equation.
The binding curves of PhnsLTP3 with various VOC compounds were obtained by non-linear fitting to the one-binding-site (Eq. (1)) and two-binding-site (Eq. (2)) models. The equations assume that the ligand binds to multiple independent binding sites and that the binding to each site follows the law of mass action:1 %offluorescencequenched=Bmax×[TNS]/kd+[TNS] 2 %offluorescencequenched=Bmax1×[TNS]/kd1+[TNS]+Bmax2×[TNS]/kd2+[TNS] […]
PhnsL TP3 (1 µ M)and TNS (3 µ M)and the fluorescence was measured before and after the tested compounds were added at various concentrations. The results are expressed as percentage of fluorescence quenched with respect to the concentration of added compound.
The binding curves were obtained by non-linear fitting to the Michaelis-Menten equation (solid line in the graph) and the dissociation constants Kd [µ M]were obtained. All data are means ±S.E. (n = 3 biological replicates).
Supplementary Figure 25 | Analysis of number of binding sites of PhnsLTP3.
TNS displacement assay was performed at fixed concentrations of PhnsLTP3 (1 µM) and TNS (3 µM) and the fluorescence was measured before and after methyl […]

[2] = target: recombinant PhnsLTP2; test: TNS displacement assay with recombinant PhnsLTP2; assay type: binding, Petunia hybrida; details: for Kd: PhnsLTP2 1 µM, TNS 3 µM, non-linear fitting to Michaelis-Menten equation, means ± S.E., n = 3, read-out: dissociation constant Kd (PhnsLTP2); for Percentage fluorescence quenched (%): biological replicates 1-3, Supplementary Figure 17
Protocol: as §1, §2
Supplementary Figure 16 | Binding kinetics of recombinant PhnsLTP2 with phenylpropanoids/benzenoids by petunia flowers, terpenoids and methyl jasmonate.
TNS displacement assays were performed at fixed concentrations of PhnsLTP2 (1 µM) and TNS (3 µM) and the fluorescence was measured before and after the tested compounds were added at various concentrations. The results are expressed as percentage of fluorescence quenched with respect to the concentration of added compound. The binding curves were obtained by non-linear fitting to the Michaelis-Menten equation (solid line in the graph) and the dissociation constants Kd [µM] were obtained. Phenylacetaldehyde, eugenol, and […]
corresponding binding curves. All data are means ±S.E. (n = 3 biological replicates).

[3] = test system: petunia flowers; test: Phenylalanine feeding: total VOC emission and total pools; assay type: in vivo, Petunia hybrida; details: for Total pools / Total emission: biological replicates 1-3; for absolute increase over 2 h in VOC emission rate upon Phe feeding: 150 mM Phe, 19:00 to 22:00 h
Source text: Such reduction in VOC emission could be the result of diminished VOC transport across the cell wall, decreased VOC biosynthesis or both. […] Recently, we have shown that the VOC redistribution and reduction of their levels in the cuticle decrease their release from the cell and reduce carbon flux to Phe, which is the precursor for petunia VOCs[8]. […] Thus, to distinguish between the contribution of VOC transport and Phe limitation in VOC biosynthesis, control and PhnsLTP3-RNAi-R5 flowers were fed with Phe, and total VOC emission and total pools were measured from 19:00 to 22:00 h (Supplementary Fig. 20).
Floral volatile emission was analyzed by dynamic headspace collection of volatiles at 25 °C on columns containing 20 mg Porapak Q (80–100 mesh) (Sigma-Aldrich) and analyzed on an Agilent 6890N-5975B GC–MS system as described previously[7],[8],[43] with minor modifications. Briefly, emitted volatiles were collected from detached transgenic and wild-type flowers from 19:00 to 22:00 h on day 2 postanthesis. Adsorbed volatiles were eluted from collection columns with 280 μL dichloromethane containing 52 nmol of naphthalene as the internal standard. For analysis of total petal pools, 0.5 g of petal tissue from transgenic and control plants was collected at 22:00 h on day 2 postanthesis, ground to a fine powder in liquid nitrogen, and total petal pools were extracted in 5 mL of dichloromethane containing 52 nmol of internal standard (naphthalene) for 12 h at −20 °C. Samples were then warmed up, vortexed and concentrated to 200 μL under a stream of nitrogen gas before injection into GC–MS (Agilent 6890N-5975B). All GC–MS data were collected and analyzed using Agilent MSD ChemStation F.01.03.2357 software. For phenylalanine feeding, flowers from wild type and PhnsLTP3-RNAi were harvested and placed in 150 mM of phenylalanine solution. Emitted volatiles and their total petal pools were sampled every hour from 16:00 till 19:00 h and from 19:00 till 22:00 h and analyzed as described above.
Supplementary Figure 20 | Total VOC emission and their total pools in control and PhnsLTP3-RNAi petunia flowers fed with 150 mM Phe. Total VOC emission (a) and total pools (b) in wild-type (WT) and PhnsLTP3-RNAi-R5 line fed with 150 mM Phe from 19:00 to 22:00 h. Data are means ± S.E. (n = 3 biological replicates). […]
determined by two-way ANOV Awith P = 0.0086. […]

Compound | Kd [1] [µM] | Kd [2] [µM] | Percentage fluorescence quenched ([1]; VOC concentration 3 µM) | Percentage fluorescence quenched ([1]; VOC concentration 30 µM) | Percentage fluorescence quenched ([1]; VOC concentration 300 µM) | Percentage fluorescence quenched ([1]; VOC concentration 1500 µM) | Percentage fluorescence quenched ([1]; VOC concentration 3000 µM) | also measured
OCCc1ccccc1 [2-Phenylethanol] | 395 ± 131 | – | 8.20% and 0.13% and 7.39% | 14.26% and 5.61% and 8.61% | 15.48% and 18.99% and 19.97% | 39.03% and 34.28% and 33.24% | 41.03% and 32.70% and 40.07% | –
O=Cc1ccccc1 [Benzaldehyde] | 276 ± 59.8 | 344 ± 80.7 | 3.47% and 6.56% and 12.79% | 19.94% and 11.97% and 16.71% | 45.75% and 56.38% and 51.72% | 74.25% and 79.55% and 80.00% | 86.84% and 86.38% and 86.21% | –
OCc1ccccc1 [Benzyl alcohol] | 208 ± 74.2 | 399 ± 261 | – | 3.06% and 3.64% and 9.84% | 23.75% and 24.96% and 17.77% | 32.13% and 29.61% and 29.01% | 34.41% and 38.89% and 34.26% | –
N[C@@H](Cc1ccccc1)C(=O)O [Phe, L-phenylalanine] | – | – | – | – | – | – | – | Total pools ([3]; PhLTP3-RNAi-5 + Phe, 19:00 h): 440.17 nmol g FW-1 and 381.25 nmol g FW-1 and 288.77 nmol g FW-1; Total emission ([3]; PhLTP3-RNAi-5 + Phe, 20:00 h): 837.22 nmol g FW-1 h-1 and 1059.64 nmol g FW-1 h-1 and 828.44 nmol g FW-1 h-1; Total pools ([3]; PhLTP3-RNAi-5 + Phe, 20:00 h): 756.94 nmol g FW-1 and 1050.75 nmol g FW-1 and 883.29 nmol g FW-1; Total emission ([3]; PhLTP3-RNAi-5 + Phe, 21:00 h): 2356.48 nmol g FW-1 h-1 and 1887.30 nmol g FW-1 h-1 and 1311.64 nmol g FW-1 h-1; Total pools ([3]; PhLTP3-RNAi-5 + Phe, 21:00 h): 1249.12 nmol g FW-1 and 1300.32 nmol g FW-1 and 829.02 nmol g FW-1; Total emission ([3]; PhLTP3-RNAi-5 + Phe, 22:00 h): 2845.33 nmol g FW-1 h-1 and 2241.14 nmol g FW-1 h-1 and 2347.25 nmol g FW-1 h-1; Total pools ([3]; PhLTP3-RNAi-5 + Phe, 22:00 h): 913.29 nmol g FW-1 and 1187.03 nmol g FW-1 and 1389.76 nmol g FW-1; absolute increase over 2 h in VOC emission rate upon Phe feeding ([3]; PhnsLTP3-RNAi-R5 flowers): 1569 ± 76 nmol g FW^−1; Total pools ([3]; WT + Phe, 19:00 h): 363.34 nmol g FW-1 and 564.43 nmol g FW-1 and 340.47 nmol g FW-1; Total emission ([3]; WT + Phe, 20:00 h): 1481.84 nmol g FW-1 h-1 and 2333.99 nmol g FW-1 h-1 and 1404.14 nmol g FW-1 h-1; Total pools ([3]; WT + Phe, 20:00 h): 885.56 nmol g FW-1 and 1126.01 nmol g FW-1 and 1295.32 nmol g FW-1; Total emission ([3]; WT + Phe, 21:00 h): 1814.62 nmol g FW-1 h-1 and 2602.15 nmol g FW-1 h-1 and 2554.66 nmol g FW-1 h-1; Total pools ([3]; WT + Phe, 21:00 h): 1190.78 nmol g FW-1 and 1426.22 nmol g FW-1 and 956.14 nmol g FW-1; Total emission ([3]; WT + Phe, 22:00 h): 3087.41 nmol g FW-1 h-1 and 2626.99 nmol g FW-1 h-1 and 3838.92 nmol g FW-1 h-1; Total pools ([3]; WT + Phe, 22:00 h): 1455.77 nmol g FW-1 and 972.77 nmol g FW-1 and 1086.37 nmol g FW-1; absolute increase over 2 h in VOC emission rate upon Phe feeding ([3]; wild-type flowers): 1444 ± 298 nmol g FW^−1

Continued, in another order:

Kd [1] [µM] | Kd [2] [µM] | Compound | Percentage fluorescence quenched ([1]; VOC concentration 3 µM) | Percentage fluorescence quenched ([1]; VOC concentration 30 µM) | Percentage fluorescence quenched ([1]; VOC concentration 300 µM) | Percentage fluorescence quenched ([1]; VOC concentration 1500 µM) | Percentage fluorescence quenched ([1]; VOC concentration 3000 µM) | also measured
2.4 ± 0.4 | 21.4 ± 4.5 | C=CC(C)(O)CCC=C(C)CCC=C(C)C (mixture of isomers) [Nerolidol] | – | – | – | – | – | Percentage fluorescence quenched (%) ([2]; VOC concentration 30 µM): 79.85% and 81.10% and 78.83%
6.5 ± 2.7 | 21.8 ± 8.8 | O=C(OCc1ccccc1)c1ccccc1 [Benzylbenzoate] | 33.25% and 16.42% and 33.70% | 72.95% and 50.76% and 70.40% | – | – | – | Percentage fluorescence quenched ([1]; VOC concentration 1 µM): 31.47% and 9.59% and 36.79%; Percentage fluorescence quenched ([1]; VOC concentration 5 µM): 25.37% and 28.56% and 39.27%; Percentage fluorescence quenched ([1]; VOC concentration 12 µM): 59.42% and 53.23% and 61.87%
26.7 ± 14.2 | 126 ± 43.6 | C=C(C)[C@H]1CC=C(C)CC1 [Limonene] | – | – | – | – | – | –
299 ± 52.4 | 501 ± 35.8 | C=CC(C)(O)CCC=C(C)C (stereo not shown) [Linalool] | – | – | – | – | – | –
253 ± 112 | 184 ± 96.5 | CC/C=C\CC1C(=O)CCC1CC(=O)OC (stereo not shown) [Methyl jasmonate] | – | – | – | – | – | Percentage fluorescence quenched (%) ([2]; VOC concentration 1500 µM): 75.75% and 76.43% and 72.92%
